Values quoted from earlier work, collected in patent publication US20240261294A1, “METHOD FOR TREATING IDH INHIBITOR-RESISTANT SUBJECTS” (Eli Lilly and Company, priority 2021, published 2024).

System: IDH2-Q316E and IDH2-1319M
Settings: preclinical studies; cited from earlier work

Compound: CC(C)(O)CNc1nc(Nc2ccnc(C(F)(F)F)c2)nc(-c2cccc(C(F)(F)F)n2)n1 [enasidenib]
- binding and inhibition of the mutant enzymes: no longer able to bind and inhibit the mutant enzymes
